Like-named read-outs stand apart in the source and are kept apart here.
Experiments:
[1] = system: V. harveyi; settings: cited from earlier work
[2] = system: V. harveyi strain MM32 (LuxN−, LuxS−); type: cell-based; settings: for light production: ligand approximately 0.2 nM, 8 hr of growth
Experimental: (§1) V. harveyi strain MM32 (luxN::Cm, luxS::Tn5Kan) was used for bioluminescence assays. This strain was constructed by introducing luxS::Tn5Kan onto the chromosome of strain JAF305 (luxN::Cm) (Bassler et al., 1993; Freeman et al., 1999). S. typhimurium strain MET844 (rpsL, putRA::Kan-lsr-lacZYA, ΔlsrFGE::Cm, luxS::TPOP) was used for lsr-lacZ assays (Taga et al., 2003). V. harveyi was grown in borate-depleted autoinducer bioassay (AB) medium (Greenberg et al., 1979), and S. typhimurium was grown in borate-depleted Luria-Bertani (LB) medium. To remove borate, the media were filtered through a borate anion-specific resin, Amberlite IRA743 (Sigma-Aldrich). Specifically, 500 ml of medium was passed three times through 30 ml of resin and the column was regenerated between each passage according to a method described previously (Bennett et al., 1999). Following filtration, the pH of the medium was adjusted using KOH made with borate-depleted water. For all experiments involving borate-depleted reagents, only plastic supplies were used. To test the effect of boron on the bioluminescence and lsr-lacZ assays, boric acid was added to the borate-depleted media to a final concentration of 5 mM.
V. harveyi MM32 was grown 14 hr in borate-depleted AB at 30° C. with aeration and subsequently diluted 1:5,000 into fresh borate-depleted AB medium in the presence or absence of 5 mM boric acid. 10% autoinducer samples (v/v) were added to the diluted cells and light production was measured hourly in a Wallac Model 1450 Microbeta Plus liquid scintillation counter. […] Bioluminescence is reported as the light produced by the cells divided by the background obtained in medium alone.
(§2) Ligands were released from LsrB and LuxP as described above. All ligand concentrations were estimated by ^11B-NMR in NMR buffer supplemented with 5 mM boric acid; the area of the boric acid peak served as an internal concentration standard.
To directly examine the influence of borate on AI-2-dependent signaling in V. harveyi and S. typhimurium, borate-depleted medium was prepared. AI-2 responses (bioluminescence in V. harveyi, lsr operon induction in S. typhimurium) were measured both with and without added boric acid. In this experiment, V. harveyi strain, MM32 was used because this strain lacks the LuxS enzyme needed to biosynthesize DPD and thus produces no endogenous AI-2 signal. This strain also has the AI-1 pathway inactivated. Bioluminescence was measured following addition of enzymatically synthesized DPD or, alternatively, ligand released from either LsrB or LuxP.

[3] = system: lsr operon in S. typhimurium strain MET844 (LuxS−); test: S. typhimurium AI-2 bioassay (lsr-lacZ, β-galactosidase activity, strain MET844); type: cell-based; settings: for lsr expression (β-galactosidase activity): borate-depleted LB medium, 4 hr, approximately 10 μM DPD and LsrB ligand, 4 μM LuxP ligand
Experimental: as §1
AI-2-dependent induction of the lsr operon in S. typhimurium was measured by determining the β-galactosidase activity of the lsr-lacZ promoter fusion in S. typhimurium strain MET844. Overnight cultures were grown in borate-depleted LB medium at 37° C. with aeration and were diluted 1:100 into fresh borate-depleted LB medium in the presence or absence of 5 mM boric acid. To the diluted cells (900 μl), 10% (v/v) autoinducer samples were added (100 μl), and cells were grown for 4 hr. Cell lysates were prepared and β-galactosidase activity was measured as described previously (Taga et al., 2003). β-galactosidase units are defined as [(OD420 min^−1×dilution factor)/OD600].
as §2

[4] = biological target: T1, S. typhimurium receptor LsrB (Salmonella typhimurium, UniProt Q8ZKQ1); test: X-ray crystal structure of the LsrB:ligand complex; type: binding; settings: holo-LsrB crystal, 1.3 Å resolution
T1 construct: The final model contains all LsrB residues present in the protein (27-340); GST (N, cleaved yes); made in house; host or cells: E. coli BL21
Description: Both apo-LsrB and holo-LsrB crystallized by the hanging drop method in 0.1 M Tris-HCl (pH 8.5), 22%-25% PEG 4000 (w/v) in space group P212121. The apo-LsrB crystals initially obtained (a=38.0, b=74.0, c=116.2) were used to seed crystallization in 0.1 M Tris-HCl, pH 8.5, 18%-24% PEG 4000. Crystals were cryoprotected by brief soaks in 0.1 M Tris-HCl, pH 8.5, 20% PEG 4000, 16% (v/v) glycerol and flash frozen in liquid nitrogen. Native crystals diffracted to 1.9 Å and data were collected at 100 K using an R-AXIS-IV image plate detector mounted on a Rigaku 200HB generator. Selenomethionine LsrB crystals were grown and frozen in the same conditions as native crystals. Selenomethionine crystals diffracted to 2.1 Å resolution at NSLS beam line X25, where MAD data were collected using an ADSC Q315 CCD detector. Holo-LsrB crystals (a=37.8, b=76.6, c=109.7) were prepared by addition of approximately 0.25 mM in vitro LuxS reaction product (Schauder et aL, 2001) to the native LsrB crystallization conditions, giving a DPD:LsrB molar ratio of slightly over 1:1. […]
To identify the LsrB ligand, LsrB was crystallized in the presence of DPD and the other products generated by incubating SAH with recombinant Pfs and LuxS enzymes as previously described (Schauder et al., 2001) (FIG. 1A). The structure was determined by molecular replacement and refined to 1.3 Å resolution (Table 1). […]

[5] = biological target: V. harveyi receptor LuxP (Vibrio harveyi, UniProt P54300); settings: Chen et al., 2002; cited from earlier work
Sequence of V. harveyi receptor LuxP (P54300 24-365): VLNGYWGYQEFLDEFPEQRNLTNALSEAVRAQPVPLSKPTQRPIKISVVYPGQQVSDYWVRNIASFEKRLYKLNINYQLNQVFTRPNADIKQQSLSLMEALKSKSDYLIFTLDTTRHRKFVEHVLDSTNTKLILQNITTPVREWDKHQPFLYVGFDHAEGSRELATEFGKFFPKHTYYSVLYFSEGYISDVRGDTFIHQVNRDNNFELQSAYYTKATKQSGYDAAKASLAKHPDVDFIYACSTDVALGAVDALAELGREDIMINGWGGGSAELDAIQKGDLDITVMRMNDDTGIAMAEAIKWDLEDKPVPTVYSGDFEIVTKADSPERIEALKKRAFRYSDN

[6] = system: S. typhimurium
Experimental: as §1

[7] = system: V. harveyi; settings: presence or absence of 5 mM boric acid; AB medium
Experimental: as §1

[8] = borate-depleted AB medium plus 5 mM boric acid
[9] = 5 mM boric acid added to borate-depleted medium

Compound: CC(=O)C(=O)C(O)CO (centres unmarked) [DPD, 4,5-dihydroxy-2,3-pentanedione]
- bioluminescence in V. harveyi ([1]; chemically synthesized DPD, only in the presence of boric acid (Meijler et al., 2004)): induces bioluminescence
- light production [2, 8]: stimulate light production
- light production ([2]; borate-depleted AB medium): No light was produced
- DPD final concentration inducing a linear response in light production ([2]; in the presence of 5 mM borate, 6-8 hr incubation): 0.1 to 1 nM
- lsr expression (β-galactosidase activity) [3]: induces lsr expression

Compound: C[C@@]1(O)OC[C@H](O)C1(O)O [LsrB ligand]
- light production [2, 8]: stimulate light production
- light production ([2]; borate-depleted AB medium): No light was produced
- lsr expression (β-galactosidase activity) [3]: induces lsr expression

Compound: C[C@]12OC[C@H](O)[C@@]1(O)O[B-](O)(O)O2 [LuxP ligand]
- light production ([2]; borate-depleted AB medium): failed to stimulate light production
- lsr expression (β-galactosidase activity) [3]: induces lsr expression

Compound: C[C@@]1(O)OC[C@H](O)C1(O)O [R-THMF, (2R,4S)-2-methyl-2,3,3,4-tetrahydroxytetrahydrofuran]
- binding to LsrB [4]: binds

Compound: CC12OCC(O)C1(O)O[B-](O)(O)O2 [S-THMF-borate, α-L-glycero-1-dehydro-3-hydro-penta-2,3-diulo-2,5-furanosyl-2,3-cyclic borate]
- binding to LuxP [5]: binds

Compound: OB(O)O [boric acid]
- effect on growth [6]: no effect
- effect on growth [7]: no effect
- effect of boric acid on the ability of DPD or either receptor's ligand to activate the V. harveyi assay [2, 9]: strongly enhances
- effect of boric acid on the ability of DPD or either receptor's ligand to activate the S. typhimurium assay [3, 9]: inhibits

Compound: N[C@@H](CCS)C(=O)O [homocysteine]
- autoinducer activity ([1]; product of the LuxS reaction): no autoinducer activity

Source: patent US7547726B2, “AI-2 compounds and analogs based on Salmonella typhimurium LsrB structure” (The Trustees of Princeton University, priority 2004, dated 2009)
